# Experimental data: patent US9447038B2 (SANOFI, priority 2012, dated 2016)
# Structures can show the parent of a compound that is named as a salt.
# Biological target: human CXCR3-A receptor (Homo sapiens (Human), UniProt P49682)
# Experiment: 125I-CXCL10 competition radioligand binding assay;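 further: One-hour incubation of membranes with tracer, bound radioligand separated by glass fibre filtration, IC50 derived from four-parameter nonlinear fit of competition curves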
# Conditions: not given
# human CXCR3-A receptor, sequence (P49682 whole entry): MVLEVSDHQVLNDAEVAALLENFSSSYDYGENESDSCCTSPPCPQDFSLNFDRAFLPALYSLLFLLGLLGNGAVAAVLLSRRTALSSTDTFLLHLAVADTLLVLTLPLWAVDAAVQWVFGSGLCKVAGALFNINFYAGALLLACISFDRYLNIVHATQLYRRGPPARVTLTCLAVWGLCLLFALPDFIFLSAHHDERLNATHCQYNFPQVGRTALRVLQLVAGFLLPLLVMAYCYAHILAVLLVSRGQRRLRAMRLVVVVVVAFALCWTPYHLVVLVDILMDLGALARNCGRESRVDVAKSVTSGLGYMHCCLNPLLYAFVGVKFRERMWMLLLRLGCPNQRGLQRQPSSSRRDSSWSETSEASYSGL
row,IC50 [nM],Compound
1,45,"CCCCN(Cc1ccc(OCCN2C(=O)CCC2=O)c(OC)c1)C(CC(=O)O)c1ccc(Cl)cc1 (stereo not drawn) [Example 38, 3-(Butyl-{4-[2-(2,5-dioxo-pyrrolidin-1-yl)-ethoxy]-3-methoxy-benzyl}-amino)-3-(4-chloro-phenyl)-propionic acid]"

# Same assay, conditions: displacement of 125I-CXCL10 from membranes of CHO cells expressing human recombinant CXCR3-A
row,IC50 [nM],Compound
1,119,"Cc1cc(CN(CC2CCCC2)C(CC(=O)O)c2ccc(Cl)c(Cl)c2)ccc1OCCN1C(=O)CCC1=O (stereo not drawn) [Example 82, 3-(Cyclopentylmethyl-{4-[2-(2,5-dioxo-pyrrolidin-1-yl)-ethoxy]-3-methyl-benzyl}-amino)-3-(3,4-dichloro-phenyl)-propionic acid]"
2,786,"COc1cc(CN(CC(C)C)[C@@H](C(=O)O)c2ccc(Cl)c(Cl)c2)ccc1OCCN1C(=O)CCC1=O [Example 110, (R)-(3,4-Dichloro-phenyl)-({4-[2-(2,5-dioxo-pyrrolidin-1-yl)-ethoxy]-3-methoxy-benzyl}-isobutyl-amino)-acetic acid]"
3,81,"Cc1cc(CN(CC2CCCC2)C(CC(=O)O)c2ccc3c(c2)CCO3)ccc1OCCn1c(=O)ccn(C)c1=O (stereo not drawn) [Example 160, 3-(Cyclopentylmethyl-{3-methyl-4-[2-(3-methyl-2,6-dioxo-3,6-dihydro-2H-pyrimidin-1-yl)-ethoxy]-benzyl}-amino)-3-(2,3-dihydro-benzofuran-5-yl)-propionic acid]"
4,43,"COc1cc(CN(CC(C)C)C(CC(=O)O)c2ccc3c(c2)CCO3)ccc1CCCN1C(=O)CCC1=O (stereo not drawn) [Example 141, 3-(2,3-Dihydro-benzofuran-5-yl)-3-({4-[3-(2,5-dioxo-pyrrolidin-1-yl)-propyl]-3-methoxy-benzyl}-isobutyl-amino)-propionic acid]"
5,23,"CCCCN(Cc1ccc(OCCN2C(=O)CCC2=O)c(OC)c1)C(CC(=O)O)c1ccc(Cl)c(F)c1 (stereo not drawn) [Example 43, 3-(Butyl-{4-[2-(2,5-dioxo-pyrrolidin-1-yl)-ethoxy]-3-methoxy-benzyl}-amino)-3-(4-chloro-3-fluoro-phenyl)-propionic acid]"
6,69,"Cc1cc(CN(CC2CCCC2)[C@@H](CC(=O)O)c2ccc(Cl)c(F)c2)ccc1OCCN1C(=O)CN(C)C1=O [Example 32, (S)-3-(4-Chloro-3-fluoro-phenyl)-3-(cyclopentylmethyl-{3-methyl-4-[2-(3-methyl-2,5-dioxo-imidazolidin-1-yl)-ethoxy]-benzyl}-amino)-propionic acid]"
7,46,"Cc1cc(CN(CC2CCCC2)C(CC(=O)O)c2ccc3c(c2)CCO3)ccc1OCCN1C(=O)CCC1=O (stereo not drawn) [Example 147, 3-(Cyclopentylmethyl-{4-[2-(2,5-dioxo-pyrrolidin-1-yl)-ethoxy]-3-methyl-benzyl}-amino)-3-(2,3-dihydro-benzofuran-5-yl)-propionic acid]"
8,464,"CCc1cc(CN(CC2CCCC2)C(CC(=O)O)c2ccc(Cl)c(Cl)c2)ccc1OCCN1C(=O)CCC1=O (stereo not drawn) [Example 100, 3-(Cyclopentylmethyl-{4-[2-(2,5-dioxo-pyrrolidin-1-yl)-ethoxy]-3-ethyl-benzyl}-amino)-3-(3,4-dichloro-phenyl)-propionic acid]"
9,79,"CCCCN(Cc1ccc(OCCN2C(=O)CCC2=O)c(CC)c1)C(CC(=O)O)c1ccc(Cl)c(F)c1 (stereo not drawn) [Example 93, 3-(Butyl-{4-[2-(2,5-dioxo-pyrrolidin-1-yl)-ethoxy]-3-ethyl-benzyl}-amino)-3-(4-chloro-3-fluoro-phenyl)-propionic acid]"
10,800,"Cc1cc(CN(CC(C)C)C2c3ccc(Cl)cc3CC2C(=O)O)ccc1OCCN1C(=O)CCC1=O (stereo not drawn) [Example 174, 5-Chloro-1-({4-[2-(2,5-dioxo-pyrrolidin-1-yl)-ethoxy]-3-methyl-benzyl}-isobutyl-amino)-indan-2-carboxylic acid]"
11,223,"O=C(O)CC(c1ccc(Cl)c(Cl)c1)N(Cc1ccc(OCCN2C(=O)CCC2=O)c(Cl)c1)CC1CC1 (stereo not drawn) [Example 106, 3-({3-Chloro-4-[2-(2,5-dioxo-pyrrolidin-1-yl)-ethoxy]-benzyl}-cyclopropylmethyl-amino)-3-(3,4-dichloro-phenyl)-propionic acid; hydrochloride]"
12,145,"O=C(O)C[C@@H](c1ccc(Cl)cc1)N(Cc1ccc(OCCN2C(=O)CCC2=O)c(Cl)c1)CC1CCC1 [Example 104, (S)-3-({3-Chloro-4-[2-(2,5-dioxo-pyrrolidin-1-yl)-ethoxy]-benzyl}-cyclobutylmethyl-amino)-3-(4-chloro-phenyl)-propionic acid]"
13,125,"CC(C)CN(Cc1ccc(OCCN2C(=O)CCC2=O)c(F)c1)C(CC(=O)O)c1ccc(Cl)cc1 (stereo not drawn) [Example 53, 3-(4-Chloro-phenyl)-3-({4-[2-(2,5-dioxo-pyrrolidin-1-yl)-ethoxy]-3-fluoro-benzyl}-isobutyl-amino)-propionic acid]"
14,116,"CCCCN(Cc1ccc(CCCN2C(=O)CCC2=O)c(OC)c1)C(CC(=O)O)c1ccc(Cl)cc1 (stereo not drawn) [Example 135, 3-(Butyl-{4-[3-(2,5-dioxo-pyrrolidin-1-yl)-propyl]-3-methoxy-benzyl}-amino)-3-(4-chloro-phenyl)-propionic acid]"
15,310,"CCN(Cc1ccc(OCCn2c(=O)ccn(C)c2=O)c(OC)c1)C(CC(=O)O)c1ccc(Cl)c(Cl)c1 (stereo not drawn) [Example 126, 3-(3,4-Dichloro-phenyl)-3-(ethyl-{3-methoxy-4-[2-(3-methyl-2,6-dioxo-3,6-dihydro-2H-pyrimidin-1-yl)-ethoxy]-benzyl}-amino)-propionic acid]"
16,39,"Cc1cc(CN(CC2CC2)[C@@H](CC(=O)O)c2ccc(Cl)c(Cl)c2)ccc1OCCN1C(=O)CCC1=O [Example 26, (S)-3-(Cyclopropylmethyl-{4-[2-(2,5-dioxo-pyrrolidin-1-yl)-ethoxy]-3-methyl-benzyl}-amino)-3-(3,4-dichloro-phenyl)-propionic acid]"
17,140,"CCCCN(Cc1ccc(OCCN2C(=O)CCC2=O)c(OC)c1)C(CC(=O)O)c1ccc(Cl)cc1Cl (stereo not drawn) [Example 150, 3-(Butyl-{4-[2-(2,5-dioxo-pyrrolidin-1-yl)-ethoxy]-3-methoxy-benzyl}-amino)-3-(2,4-dichloro-phenyl)-propionic acid]"

# The next lines start with the compound.
row,Compound,IC50 [nM]
1,"CCCCN(Cc1ccc(CCCN2C(=O)CCC2=O)c(C)c1)C(CC(=O)O)c1ccc2c(c1)CCO2 (stereo not drawn) [Example 177, 3-(Butyl-{4-[3-(2,5-dioxo-pyrrolidin-1-yl)-propyl]-3-methyl-benzyl}-amino)-3-(2,3-dihydro-benzofuran-5-yl)-propionic acid]",255
2,"COc1cc(CN(CC(C)C)C2c3ccc(Cl)cc3CC2C(=O)O)ccc1OCCN1C(=O)CCC1=O (stereo not drawn) [Example 170, 5-Chloro-1-({4-[2-(2,5-dioxo-pyrrolidin-1-yl)-ethoxy]-3-methoxy-benzyl}-isobutyl-amino)-indan-2-carboxylic acid]",345
3,"COc1cc(CN(CC2CCCCC2)C(CC(=O)O)c2ccc(C(F)(F)F)cc2)ccc1OCCN1C(=O)CCC1=O (stereo not drawn) [Example 181, 3-(Cyclohexylmethyl-{4-[2-(2,5-dioxo-pyrrolidin-1-yl)-ethoxy]-3-methoxy-benzyl}-amino)-3-(4-trifluoromethyl-phenyl)-propionic acid]",507
4,"Cc1cc(CN(CC2CCCCC2)C(CC(=O)O)c2ccc3c(c2)CCO3)ccc1OCCN1C(=O)CCC1=O (stereo not drawn) [Example 149, 3-(Cyclohexylmethyl-{4-[2-(2,5-dioxo-pyrrolidin-1-yl)-ethoxy]-3-methyl-benzyl}-amino)-3-(2,3-dihydro-benzofuran-5-yl)-propionic acid]",72
5,"CCCCN(Cc1ccc(OCCN2C(=O)CCC2=O)c(C)c1)C(CC(=O)O)c1ccc(Cl)cc1Cl (stereo not drawn) [Example 164, 3-(Butyl-{4-[2-(2,5-dioxo-pyrrolidin-1-yl)-ethoxy]-3-methyl-benzyl}-amino)-3-(2,4-dichloro-phenyl)-propionic acid]",133
6,"CCCN(Cc1ccc(OCCn2c(=O)ccn(C)c2=O)c(OC)c1)C(CC(=O)O)c1ccc(Cl)c(Cl)c1 (stereo not drawn) [Example 125, 3-(3,4-Dichloro-phenyl)-3-({3-methoxy-4-[2-(3-methyl-2,6-dioxo-3,6-dihydro-2H-pyrimidin-1-yl)-ethoxy]-benzyl}-propyl-amino)-propionic acid]",72
7,"CCc1cc(CN(CC2CCC2)[C@@H](CC(=O)O)c2ccc(Cl)cc2)ccc1OCCN1C(=O)CCC1=O [Example 88, (S)-3-(4-Chloro-phenyl)-3-(cyclobutylmethyl-{4-[2-(2,5-dioxo-pyrrolidin-1-yl)-ethoxy]-3-ethyl-benzyl}-amino)-propionic acid]",70
8,"COc1cc(CN(CC2CC2)[C@@H](C(=O)O)c2ccc(Cl)c(Cl)c2)ccc1OCCN1C(=O)CCC1=O [Example 111, (R)-(Cyclopropylmethyl-{4-[2-(2,5-dioxo-pyrrolidin-1-yl)-ethoxy]-3-methoxy-benzyl}-amino)-(3,4-dichloro-phenyl)-acetic acid]",420
9,"COc1cc(CN(CC2CC2)C(CC(=O)O)c2ccc(Cl)c(Cl)c2)ccc1SCCN1C(=O)CCC1=O (stereo not drawn) [Example 191, 3-(Cyclopropylmethyl-{4-[2-(2,5-dioxo-pyrrolidin-1-yl)-ethylsulfanyl]-3-methoxy-benzyl}-amino)-3-(3,4-dichloro-phenyl)-propionic acid]",20
10,"CCCN(Cc1ccc(OCCN2C(=O)CCC2=O)c(OC)c1)C(CC(=O)O)c1ccc(Cl)c(F)c1 (stereo not drawn) [Example 41, 3-(4-Chloro-3-fluoro-phenyl)-3-({4-[2-(2,5-dioxo-pyrrolidin-1-yl)-ethoxy]-3-methoxy-benzyl}-propyl-amino)-propionic acid]",107
11,"Cc1cc(CN(CC2CCCCC2)[C@@H](CC(=O)O)c2ccc(Cl)c(F)c2)ccc1OCCN1C(=O)CN(C)C1=O [Example 34, (S)-3-(4-Chloro-3-fluoro-phenyl)-3-(cyclohexylmethyl-{3-methyl-4-[2-(3-methyl-2,5-dioxo-imidazolidin-1-yl)-ethoxy]-benzyl}-amino)-propionic acid]",83
12,"COc1cc(CN(Cc2ccc(F)cc2)C(CC(=O)O)c2ccc(Cl)cc2)ccc1OCCN1C(=O)CCC1=O (stereo not drawn) [Example 165, 3-(4-Chloro-phenyl)-3-[{4-[2-(2,5-dioxo-pyrrolidin-1-yl)-ethoxy]-3-methoxy-benzyl}-(4-fluoro-benzyl)-amino]-propionic acid; hydrochloride]",75
